Reference: patent US5315038A, “Microorganism for breaking down moenomycins, a process for the breakdown, and the use of the breakdown products” (Hoechst Aktiengesellschaft, priority 1988, dated 1994)
≈ marks a conversion by molar mass, not a printed value.

Columns and labels:
transglycosylase [1] = biological target: T1, transglycosylase (Escherichia coli, UniProt P02919); test: Another study: inhibition of the transglycosylase reaction, in vitro peptidoglycan synthesis; type: biochemical, E. coli K 12; details: Final Concentration 12.5 μg/l
T1 sequence (P02919 whole entry): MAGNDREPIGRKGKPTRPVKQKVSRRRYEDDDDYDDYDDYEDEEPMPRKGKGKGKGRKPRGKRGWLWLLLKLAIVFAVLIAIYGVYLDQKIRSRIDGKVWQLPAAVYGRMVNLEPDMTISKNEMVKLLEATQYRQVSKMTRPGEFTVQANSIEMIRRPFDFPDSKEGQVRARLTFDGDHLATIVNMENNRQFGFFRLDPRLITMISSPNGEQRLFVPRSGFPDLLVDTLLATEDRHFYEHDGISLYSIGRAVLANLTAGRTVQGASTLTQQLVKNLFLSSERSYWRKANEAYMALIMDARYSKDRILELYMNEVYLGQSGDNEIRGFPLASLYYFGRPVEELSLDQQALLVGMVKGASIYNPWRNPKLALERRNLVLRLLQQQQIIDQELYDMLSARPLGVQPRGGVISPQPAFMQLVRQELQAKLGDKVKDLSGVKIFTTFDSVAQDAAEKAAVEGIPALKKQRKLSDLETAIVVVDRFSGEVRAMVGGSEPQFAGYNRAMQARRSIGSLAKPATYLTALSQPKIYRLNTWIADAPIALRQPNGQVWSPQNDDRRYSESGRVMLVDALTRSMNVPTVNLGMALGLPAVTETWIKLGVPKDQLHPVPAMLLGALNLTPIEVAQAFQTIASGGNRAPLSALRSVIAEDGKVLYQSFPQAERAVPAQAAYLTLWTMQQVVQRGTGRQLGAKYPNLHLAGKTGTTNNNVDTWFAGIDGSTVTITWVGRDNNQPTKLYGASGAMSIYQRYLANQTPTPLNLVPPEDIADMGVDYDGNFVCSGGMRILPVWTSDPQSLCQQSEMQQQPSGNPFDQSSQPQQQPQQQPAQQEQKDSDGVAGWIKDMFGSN
Procedure: (§1) The inhibition of the polymerization of the peptidoglycan-sugar chains by the cleavage products was carried out by the assay described by Izaki (J. Biol. Chem. 243, 3180-3192, 1968) using lipid intermediates from the cell membrane of E. coli K 12.
Results of another study of the inhibition of the transglycosylase reaction by moenomycin cleavage products in vitro is shown in the following Table. The values in the Table show the inhibition of peptidoglycan-sugar chain synthesis in vitro. Decahydro MB is an analog of MB that has no double bonds in the alkyl chain.

Moenomycinase [2] = test: Moenomycinase activity (activation / inhibition); type: biochemical, Bacillus spec. DSM 4675
Source text: The dissolved enzyme was further purified by chromatography. For anion exchange chromatography, the enzyme was bound to a column of DEAE-52 (Whatman) or MonoQHR-5-5 (Pharmacia) and then eluted with 0.2-1.0M NaCl. Presence of moenomycinase in the fractions was monitored by measuring the conversion of moenomycin A to MC, as described in Example 3, below. Further purification was achieved using hydrophobic chromatography. The enzyme was bound to phenylsepharose (Pharmacia), and was then eluted with 40% methanol. The enzyme was concentrated by ultrafiltration using an ultrafiltration membrane (Millipore) which retains molecules with molecular weights ≥10,000 Dalton.

Moenomycinase [3] = test: Moenomycinase kinetics (Km for substrate); type: biochemical, Bacillus spec. DSM 4675; details: moenomycin A as substrate
[4] = tested on: biosynthesis of the peptidoglycan framework of the bacterial cell wall; details: cited from earlier work
E. coli DC2 = test: Agar dilution test, Mueller-Hinton agar (minimum inhibitory concentration); type: cell-based; details: Escherichia coli
Procedure: (§2) An agar dilution test with Mueller-Hinton agar was carried out to determine the antibacterial activities (Antibiotics in Laboratory Medicine, V. Lorian, Ed., Baltimore 1986, pages 1-10).

Staph. aureus 503 = test: as above; type: cell-based; details: Staphylococcus aureus
Procedure: as §2

Str. pyogenes 77 = test: as above; type: cell-based; details: Streptococcus pyogenes
Procedure: as §2

transglycosylase [5] = biological target: T1, transglycosylase; test: Transglycosylase assay (Izaki), inhibition of polymerization of the peptidoglycan-sugar chains; type: biochemical, E. coli K 12; details: moenomycin A 20 μg/ml; concentration of MB not stated separately
Procedure: as §1

## CC(C)CCCC(C)CCC(C)CCC(C)(C)CCCCC(C)CCO[C@H](COP(=O)(O)O)C(=O)O (stereo partly shown) [Decahydro MB]
Transglycosylase [1]
  % Inhibition of In Vitro Peptidoglycan Synthesis: 28%

## CC(=O)OCC1=C(C(=O)O)N2C(=O)[C@@H](NC(=O)CCC[C@@H](N)C(=O)O)[C@H]2SC1 [Cephalosporin C]
Moenomycinase [2]
  inhibition of moenomycinase: inhibited

## C=C(CC=C(C)CCC=C(C)C)CCC(C)(C)C=CCCC(C)=CCOC(COP(=O)(O)OC1OC(C(N)=O)C(C)(O)C(OC(N)=O)C1OC1OC(COC2OC(CO)C(O)C(O)C2O)C(OC2OC(C)C(OC3OC(C(=O)NC4=C(O)CCC4=O)C(O)C(O)C3O)C(O)C2NC(C)=O)C(O)C1NC(C)=O)C(=O)O (stereo not shown) [moenomycin A]
Moenomycinase [3]
  Km: 4 to 10 mM
[4]
  inhibition of the biosynthesis of the peptidoglycan framework of the bacterial cell wall: inhibits

## C=C(CC=C(C)CCC=C(C)C)CCC(C)(C)C=CCCC(C)=CCO[C@H](COP(=O)(O)O)C(=O)O [MB]
E. coli DC2
  MIC: > 100 µg/mL
Staph. aureus 503
  MIC: 25 µg/mL (≈ 47.5 µM)
Str. pyogenes 77
  MIC: 3.12 µg/mL (≈ 5.93 µM)
Transglycosylase [5]
  inhibition of the transglycosylase reaction: 32.9%
Transglycosylase [1]
  % Inhibition of In Vitro Peptidoglycan Synthesis: 94%

## C=C(CC=C(C)CCC=C(C)C)CCC(C)(C)C=CCCC(C)=CCO[C@H](CO)C(=O)O [MA]
E. coli DC2
  MIC: > 100 µg/mL
Staph. aureus 503
  MIC: > 100 µg/mL
Str. pyogenes 77
  MIC: > 100 µg/mL
Transglycosylase [1]
  % Inhibition of In Vitro Peptidoglycan Synthesis: 67%

## O=C(O)CN(CCN(CC(=O)O)CC(=O)O)CC(=O)O [EDTA]
Moenomycinase [2]
  inhibition of moenomycinase: inhibited

## formalin
Moenomycinase [2]
  inhibition of moenomycinase: inhibited

## CC(=O)OCC1=C(C(=O)O)N2C(=O)[C@@H](N)[C@H]2SC1 [7-aminocephalosporin acid (7-ACA), 7-aminocephalosporin acid]
Moenomycinase [2]
  inhibition of moenomycinase: inhibited
